From publication PMC6805867, “Amphiphilic Triazine Polymer Derivatives as Antibacterial And Anti-atopic Agents in Mice Model” (Scientific Reports, 2019)

Legend:
[1] = tested on: Multidrug-resistant Pseudomonas aeruginosa (MDRPA) (CCARM 2095); assay: Chequerboard assay (synergy with clinically used antibiotics); assay type: cell-based; settings: for FICB: [B]/MICB; for FICI (fractional inhibitory concentration index): MDRPA CCARM 2095; for [B] (MIC of triazine polymer in combination): unit not given
Description: Briefly, 2-fold serial dilutions of each antibiotic and each polymer were prepared and added in a 1:1 volume ratio to the wells of a 96-well plate. An equal volume of bacterial solution (100 μL) at ∼10^6 CFU/mL was then seeded into each well. The plates were incubated in a shaking incubator at 37 °C and 200 rpm and read after 22 h. Bacterial growth was assessed visually or spectrophotometrically via OD600 readings taken by a microplate ELISA reader (Molecular Devices, Sunnyvale, CA, USA). The fractional inhibitory concentration index (FICI) for each drug combination was calculated using the following equation: FICI = FICA + FICB = [A]/MICA + [B]/MICB, where MICA and MICB are the MIC of antibiotic and triazine based monomer (TZP3 or TZP5), respectively, while [A] and [B] are the MIC of antibiotic and triazine based monomer (TZP3 or TZP5) in combination, respectively. FICI of ≤ 0.5 was interpreted as synergy, 0.5 < FICI ≤ 1.0 as additive, 1.0 < FICI ≤ 4.0 as indifferent, and a FICI > 4.0 as antagonism.

[2] = tested on: trypsin; assay: Protease stability, radial diffusion assay after tryptic digestion; assay type: in vitro ADME; settings: trypsin 0.2 μg/mL in PBS, 37 °C (24 h, 4 h elsewhere in the source), clearance zones against E.coli and S.aureus
Description: The protease stability of triazine based polymers (TZP3 and TZP5) was performed by the radial diffusion assay as described previously. Briefly, a bacteria suspension (2×10^6 CFU/mL in LB) was mixed with 0.7% agarose. This mixture was poured into a 10-cm petri dish, and it dispersed rapidly. […] The reaction was stopped by freezing with liquid nitrogen, after which 10 μL aliquots were placed in each circle paper, put on the agarose plates, and then incubated at 37 °C overnight. The diameters of the bacterial clearance zones surrounding the circle paper were measured for the quantitation of inhibitory activities.

[3] = tested on: AD-like skin lesion in BALB/c mice; assay: DNCB-induced AD-like skin lesion model, dermatitis score; assay type: in vivo; settings: 200 μg/mL in 20 μL PBS on dorsal skin once daily for 18 days, versus AD mice, n = 8
Description: (§1) As described in our previous article, the 7-week-old female BALB/c mice were divided into seven groups (n = 8 per group): Control (Con) group, TZP3 200 μg/mL (TZP3) group, and TZP5 200 μg/mL (TZP5) group, DNCB-sensitized only (AD) group, DNCB-sensitized + TZP3 200 μg/mL (AD + TZP3) group, DNCB-sensitized + TZP5 200 μg/mL (AD + TZP5) group, DNCB-sensitized + Dermatop (Sanofi, Korea) 0.25% (AD + Dermatop) group. Dermatop was used as a positive control treatment. For the first induction of AD in the BALB/c mice, the backs of the mice were shaved and challenged with 200 μL of 1% 2,4-dinitrochlorobenzene(DNCB) in acetone/olive oil (3:1) one time (day−4). After 4 days from the induction, 0.5% DNCB was painted onto the backs of the mice every two days (day 2, 4, 6, 8, 10, 12, 14, 16 and 18). Concentrations of 200 μg/mL TZP3 or TZP5 in 20 μL of PBS were applied to the dorsal skin once daily for 18 days.
The severity of dermatitis on the dorsal skin lesions was evaluated three times per week, according to a slight modification of the criteria described previously. The development of (1) erythema/hemorrhage, (2) scarring/dryness, (3) edema, and (4) excoriation/erosion was scored as 0 (none), 1 (mild), 2 (moderate), or 3 (severe). The sum of the individual scores was defined as the dermatitis score.

[4] = tested on: dorsal skin of AD-induced BALB/c mice; assay: DNCB-induced AD model, histological observations (H&E, toluidine blue); assay type: in vivo; settings: versus AD mice; for decrease in both epidermal and dermal thickness: 200 μg/mL topical daily for 18 days, H&E staining; for infiltration of mast cells in the skin lesions: topical application, toluidine blue staining
Description: as §1
As described in our previous article, the skin tissues of the mice were […] in 10% neutral buffered formalin (NBF) for 24 h and embedded in white paraffin. Serial paraffin‐sections with 5 µm thickness, were prepared and stained with hematoxylin-eosin (H&E) or toluidine blue. The thickness of the epidermis and dermis was measured under a microscope. The number of mast cells stained by toluidine blue in the upper dermis in a field of 0.25 mm × 0.25 mm (0.0625 mm^2) was counted under the microscope. The cells in five fields (0.3125 mm^2 in total) of the upper dermis were counted, and an estimate of the number of cells per 1 mm^2 was made for each mouse specimen.

[5] = tested on: lymph node and spleen of AD-induced mice; assay: DNCB-induced AD model, lymph node and spleen weight and size; assay type: in vivo, BALB/c mice; settings: for weight and size of spleen: compared to AD-induced mice, p < 0.05 for weight; for decrease in both weight and size of lymph node: compared to untreated AD-mice
Description: as §1

[6] = in combination with chloramphenicol
[7] = in combination with ciprofloxacin
[8] = combination with chloramphenicol

Structure (SMILES)	FICB [1, 6]	FICB [1, 7]	FICB ([1]; in combination with oxacillin)	Interaction [1, 8]	FICI (fractional inhibitory concentration index) [1, 8]	Interaction ([1]; combination with ciprofloxacin)	FICI (fractional inhibitory concentration index) ([1]; combination with ciprofloxacin)	Interaction ([1]; combination with oxacillin)	FICI (fractional inhibitory concentration index) ([1]; combination with oxacillin)	[B] (MIC of triazine polymer in combination) [1, 6]	[B] (MIC of triazine polymer in combination) [1, 7]	[B] (MIC of triazine polymer in combination) ([1]; in combination with oxacillin)	antibacterial activity after incubation with trypsin [2]	dermatitis score [3]	decrease in both epidermal and dermal thickness [4]	infiltration of mast cells in the skin lesions [4]	weight and size of spleen [5]	decrease in both weight and size of lymph node [5]
NCCCN(CCCN)c1nc(N)nc(NCCNc2nc(Cl)nc(N(Cc3ccccc3)Cc3ccccc3)n2)n1 [TZP3]	0.25	0.5	1.0	synergy (FICI of ≤ 0.5 was interpreted as synergy)	0.281	additive (0.5 < FICI ≤ 1.0 as additive)	0.75	indifferent (1.0 < FICI ≤ 4.0 as indifferent)	2.0	4	8	16	did not lose any of their antibacterial effects	significantly decreased score	more than 50%	significantly suppressed	significant decrease	more than 35%
NCCCN(CCCN)c1nc(Cl)nc(NCCNc2nc(NCCNc3nc(N)nc(NCCC(c4ccccc4)c4ccccc4)n3)nc(N(CCCN)CCCN)n2)n1 [TZP5]	0.25	0.25	1.0	synergy (FICI of ≤ 0.5 was interpreted as synergy)	0.281	synergy (FICI of ≤ 0.5 was interpreted as synergy)	0.5	indifferent (1.0 < FICI ≤ 4.0 as indifferent)	2.0	4	4	16	did not lose any of their antibacterial effects	significantly decreased score	more than 50%	significantly suppressed	significant decrease	more than 35%
